Test results taken from US20090247466A1, “NEUROPROTECTIVE INTEGRIN-BINDING PEPTIDE AND ANGIOPOIETIN-1 TREATMENTS” (University of Louisville Research Foundation, priority 2008, published 2009).
Ends that are not written are not given here.

Legend:
[1] = test system: C57BL/6 mice with spinal cord contusion at T9; assay: White matter sparing at the injury epicenter (eriochrome cyanine myelin staining) after spinal cord contusion; assay type: in vivo
Protocol: These mice were tested for overground locomotion using the Basso Mouse Scale (BMS) before the contusion and on the day of euthanasia.
To label endothelial cells of perfused blood vessels, 4 of the vehicle and 4 of the C16 mice received an intravenous injection of the lectin LEA 20 minutes before euthanasia.
To determine whether […] C16 would be neuroprotective, vehicle (n=8) or 100 μg/day C16 (n=9) was injected over 7 days. These mice were tested using the BMS before the contusion and on the last day.
To determine whether C16 had lasting neuroprotective effects, mice received daily injections with vehicle (n=8) or 100 μg/day C16 (n=9) for 14 days. […] These mice were evaluated every week by BMS and were euthanized after 6 weeks. […]
To detect myelin in white matter tracts, one of every five of the transverse sections at each rostro-caudal 1 mm level were stained with a modified eriochrome cyanine (EC) staining protocol (Rabchevsky et al., 2001, J Neurotrauma 18:513-522). […] The injury epicenter was determined for each mouse by the rostro-caudal level that contained the least amount of spared myelin per transverse section. […]
Sections were examined using a Leica DMIRE2 brightfield and fluorescence microscope and images digitized with an attached Spot RTKE camera (Diagnostics Inc., Sterling Height, Mich.). […] The area of LEA was determined with Scion Image. […]

[2] = test system: C57BL/6 mice with spinal cord contusion at T9; assay: Inflammation: CD45 and CD68 immunostained area after spinal cord contusion; assay type: in vivo
Protocol: Adjacent sections at each mm level were processed for double- or triple immunofluorescent staining to detect CD45 (leukocytes), CD68 (activated microglia/macrophages), PECAM1 (endothelial cells), αv, β3 or α5β1 integrin, or in some cases laminin (to define the so-called heterodomain or area of tissue loss). Slides were warmed for 20 minutes on a slide warmer, a ring of wax applied around the sections with a PAP pen (Invitrogen™, Carlsbad, Calif.) and the slides rinsed in 0.1 M Tris-buffered saline (TBS) for 10 min. […] To measure the volume of tissue loss as determined by laminin staining in the horizontal sections, the sections were processed using an ABC-DAB staining protocol.
Sections were examined using a Leica DMIRE2 brightfield and fluorescence microscope and images digitized with an attached Spot RTKE camera (Diagnostics Inc., Sterling Height, Mich.). EC, CD45, CD68 and PECAM staining through the entire plane of the transverse sections was digitized using a 5× objective and the area occupied by the staining calculated for the three sections per rostro-caudal level by using the threshold feature of Scion Image software (Scion Corporation, Frederick, Md.). […] The area of LEA was determined with Scion Image. To provide a measure of the number of blood vessels, the number of LEA-positive vessels intersecting 100 μm spaced horizontal (5) and vertical (6) lines were counted in each image. […] The software calculated the volume based on the section interval and the area per section and this was expressed as a percentage of the total 10 mm segment. […]

[3] = test system: C57BL/6 mice with spinal cord contusion at T9; assay: Blood vessel permeability: luciferase extravasated into the spinal cord at the injury site; assay type: in vivo
Protocol: Increased permeability contributes to tissue loss following SCI and was measured here by the amount of luciferase that extravasated into the spinal cord at the injury site after i.v. injection 20 minutes before analysis.

[4] = test system: C57BL/6 mice with spinal cord contusion at T9; assay: Perfused (LEA lectin-labeled) blood vessels in the injury penumbra after spinal cord contusion; assay type: in vivo; details: single i.v. injection immediately after injury; 24 hours
Protocol: Normal (n=3) and 7 day sham operated mice (n=5) also received intravenous LEA injections.
To pre-label perfused blood vessels, 100 μg in 100 μl of FITC-conjugated LEA (Lectin from Lycopersicon esculentum; Sigma, St. Louis, Mo.) was injected into the other jugular vein 30 minutes before euthanasia.

[5] = test system: C57BL/6 mice with spinal cord contusion at T9; assay: Overground locomotor function, Basso Mouse Scale (BMS), after spinal cord contusion; assay type: in vivo
Protocol: To determine whether C16 had lasting neuroprotective effects, mice received daily injections with vehicle (n=8) or 100 μg/day C16 (n=9) for 14 days. The treatment was started 4 hours after the spinal cord injury consistent with the time it takes to diagnose most injured humans in the developed world. These mice were evaluated every week by BMS and were euthanized after 6 weeks.
Functional recovery from the spinal cord contusion was determined weekly by open-field overground locomotor performance using the Basso Mouse Scale (BMS; Basso et al., 2006, J Neurotrauma 23:635-659), with scores ranging from 0 (complete paralysis) to 9 (normal mobility). Left and right sides are scored separately and averaged for each mouse. Weight bearing is seen at a score of 5 but not at 4. Locomotor function was measured by placing the mouse for 4 min in the center of a circular enclosure (90 cm in diameter, 7 cm wall height) made of molded plastic with a smooth, non-slip floor. Before each evaluation, the mice were examined carefully for perineal infections, wounds in the limbs, or tail and foot autophagia, as they could influence stepping. Such mice were excluded from the BMS test. The mice were tested for baseline values before surgery. The mice in the 7-day experiments were tested on the day of euthanasia and the mice in the 6 week chronic group were tested every week starting on day 8 or 9 after the contusion.
Adult C57B1/6 mice received a contusion injury at the thoracic spine level 9. Starting 4 hours after the injury, the mice received daily intravenous injections of control vehicle, Ang-1 or Ang-1 plus C16 (all at 100 μg/day) for 7 days.
Functional recovery after SCI was determined weekly by open-field overground locomotor performance using the BMS (Basso et al., J Neurotrauma, 23(5), 635-659 (2006)). Before each evaluation, the mice were examined carefully for perineal infections, wounds in the limbs, or tail and foot autophagia, as they could influence stepping. Such mice were excluded from the BMS test. The mice were acclimatized to the testing area for at least 25 minutes, including individually handling for at least 5 minutes, for 3 days and then tested for baseline values before surgery. The mice in the 7-day experiments were tested on the day of euthanasia and the mice in the 6 week chronic group were tested every week starting on day 8 or 9 after the contusion.

peripheral leukocytes = assay: Blood cell counts after 7 days of treatment; assay type: in vivo, mice; set-up: key to Leukocytes eosinophils / Leukocytes basophils / Erythrocytes / Leukocytes total / Leukocytes neutrophils / Leukocytes lymphocytes / Leukocytes monocytes: N = within the normal range
Protocol: (§1) To determine potential effects of C16 on the number of peripheral leukocytes, 1 ml blood was drawn from the heart just before perfusion-fixation in mice that had been treated with vehicle (n=3) or C16 (n=2) for 7 days treated. The blood was collected in EDTA-coated tubes and blood counts were performed by Drew Scientific Inc. (Oxford, Conn.).
as §1, with “vehicle” for “vehicle (n=3)”, “C16” for “C16 (n=2)”, “days.” for “days treated.”

[6] = Blood cell counts after 7 days of treatment; assay type: in vivo, mice; set-up: key to Leukocytes eosinophils / Leukocytes basophils / Erythrocytes / Leukocytes total / Leukocytes neutrophils / Leukocytes lymphocytes / Leukocytes monocytes: N = within the normal range; details: daily C16 for 7 days after T9 contusion; individual mice A, B
Protocol: as §1
as §1, with “vehicle” for “vehicle (n=3)”, “C16” for “C16 (n=2)”, “days.” for “days treated.”

[7] = test system: monocytic THP-1 cells across human aortic endothelial cells; assay: Transendothelial migration assay; assay type: cell-based; details: SP3 600 μM; absence or presence of TNFα
Protocol: Human aortic endothelial cells (Lonza, Wakersville, Md.) were plated on permeable filters in Transwell® culture plates (Costar, Cambridge, Mass.) at 4×10^4 cells per well. They were grown for 72-96 hours to reach confluency at 37° C. in Dulbecco's modified Eagle's medium Ham's F-12 (DMEM F-12; BioWhittaker, Walkersville, Md.) plus EGM-2 growth factor supplements (EGM-2 SingleQuots™ from Lonza Walkersville Inc, containing hydrocortisone, hEGF, FBS, VEGF, hFGF-B, R3-IGF-1, ascorbic acid, heparin and gentamicin/amphotericin-B) and 10-20% fetal calf serum. Afterwards, the inner chamber of the Transwell® system was loaded with 2×10^5 monocytic THP-1 cells (American Type Culture Collection, Manassas, Va.) and preincubated in medium with or without 15 ng/ml of TNF-α (PeproTech, Rocky Hill, N.J.) for 5 hr at 37° C. C16 peptide was added into the medium of the inner chamber at 25, 50, 100, 200, 400, 600 μM, and SP3 was added at 600 μM. […] The monocytic THP-1 cells were allowed to transmigrate for 6 h at 37° C. and the number of THP-1 cells that crossed endothelial cell layer was counted. […]
Human aortic ECs (BioWhittaker, Walkersville, Md.) were plated on permeable filters in Transwell culture plates (Costar, Cambridge, Mass.) at 4×10^4 cells per well. […] THP-1 cells were allowed to transmigrate for 6 h at 37° C. and the number of THP-1 cells that crossed EC layer was counted. […]

[8] = biological target: human αvβ3 integrin (human) (UniProt P06756); assay: cell-based or functional assay
Sequence of human αvβ3 integrin (human) (P06756 31-1048, chain 1 of 2): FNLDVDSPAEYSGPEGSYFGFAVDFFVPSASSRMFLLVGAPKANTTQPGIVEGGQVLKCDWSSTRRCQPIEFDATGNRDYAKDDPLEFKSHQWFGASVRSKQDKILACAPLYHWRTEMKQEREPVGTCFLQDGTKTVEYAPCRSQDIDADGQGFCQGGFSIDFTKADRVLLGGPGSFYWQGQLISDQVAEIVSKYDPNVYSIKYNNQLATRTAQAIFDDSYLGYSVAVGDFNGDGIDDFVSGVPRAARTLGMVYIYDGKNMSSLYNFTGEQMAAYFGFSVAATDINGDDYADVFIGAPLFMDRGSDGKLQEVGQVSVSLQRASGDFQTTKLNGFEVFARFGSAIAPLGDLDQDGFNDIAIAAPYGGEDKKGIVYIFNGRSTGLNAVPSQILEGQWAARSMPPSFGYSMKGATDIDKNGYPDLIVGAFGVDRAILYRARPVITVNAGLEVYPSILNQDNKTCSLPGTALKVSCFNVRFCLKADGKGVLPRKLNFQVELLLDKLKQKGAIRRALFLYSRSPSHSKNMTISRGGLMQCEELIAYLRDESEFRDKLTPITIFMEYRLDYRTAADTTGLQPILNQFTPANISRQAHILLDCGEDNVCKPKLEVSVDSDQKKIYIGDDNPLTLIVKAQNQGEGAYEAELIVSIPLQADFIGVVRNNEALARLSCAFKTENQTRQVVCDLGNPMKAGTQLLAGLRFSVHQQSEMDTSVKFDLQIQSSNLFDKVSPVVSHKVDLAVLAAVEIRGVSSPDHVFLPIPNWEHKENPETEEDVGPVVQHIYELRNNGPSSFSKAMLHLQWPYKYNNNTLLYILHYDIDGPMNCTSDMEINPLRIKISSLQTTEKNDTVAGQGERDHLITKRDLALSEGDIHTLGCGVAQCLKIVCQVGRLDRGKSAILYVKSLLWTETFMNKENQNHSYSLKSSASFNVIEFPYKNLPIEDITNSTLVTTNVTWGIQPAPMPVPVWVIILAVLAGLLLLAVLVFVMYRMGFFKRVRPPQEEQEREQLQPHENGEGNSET
Sequence of human αvβ3 integrin (human) (P05106 27-788, chain 2 of 2, further chain): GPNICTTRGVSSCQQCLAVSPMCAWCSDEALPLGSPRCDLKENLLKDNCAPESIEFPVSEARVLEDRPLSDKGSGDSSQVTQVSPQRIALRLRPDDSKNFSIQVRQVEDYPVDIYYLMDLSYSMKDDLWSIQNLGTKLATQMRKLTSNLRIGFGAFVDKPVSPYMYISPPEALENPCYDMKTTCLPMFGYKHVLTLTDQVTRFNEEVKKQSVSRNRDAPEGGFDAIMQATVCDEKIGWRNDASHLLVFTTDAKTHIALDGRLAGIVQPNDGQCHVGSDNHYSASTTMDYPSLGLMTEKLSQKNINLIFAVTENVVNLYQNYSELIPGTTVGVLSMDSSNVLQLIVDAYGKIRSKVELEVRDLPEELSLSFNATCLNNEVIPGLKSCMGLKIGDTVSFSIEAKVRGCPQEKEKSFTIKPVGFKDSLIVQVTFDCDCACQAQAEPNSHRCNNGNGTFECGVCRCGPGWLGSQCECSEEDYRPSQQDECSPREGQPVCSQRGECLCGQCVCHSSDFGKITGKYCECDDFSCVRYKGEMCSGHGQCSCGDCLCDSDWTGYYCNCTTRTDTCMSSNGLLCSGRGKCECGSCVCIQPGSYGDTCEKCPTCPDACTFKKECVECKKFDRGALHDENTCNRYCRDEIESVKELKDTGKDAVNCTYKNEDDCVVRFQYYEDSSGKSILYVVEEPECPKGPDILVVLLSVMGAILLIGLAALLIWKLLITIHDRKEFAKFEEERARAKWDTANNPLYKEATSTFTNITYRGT

[9] = daily C16 for 7 days after T9 contusion, individual mice A, B

For “Angiopoietin-1 tetra-fibrinogen-like domain [Ang-1]”, the “cross-sectional area of white matter at the epicenter compared with vehicle” value ([1]; 7 and 42 day post-injury times) was “greater”, the “smaller area of CD68 staining than vehicle treated mice” value ([2]; 24 hours, 3 mm rostral to 3 mm caudal from the epicenter) was about 25% and the “inflammation (CD45, CD68 area) compared with vehicle” value ([2]; all post-injury times, 3 mm rostral to 3 mm caudal from the epicenter) was “reduced inflammation”. For the same substance, the “luciferase values versus vehicle” value ([3]; 24 hours following SCI) was “not different”, the “luciferase values, of vehicle” value ([3]; 72 hours following SCI) was 55±13% and the “number of LEA-positive blood vessels in the penumbra, of sham” value [4] was 40%. The “BMS score (9 point scale)” value ([5]; 100 μg/day i.v. for 7 days starting 4 hours after injury, behavioral analyses over 6 weeks) was 5.5, the “mice with a BMS score of 7 or above” value ([5]; i.v. for 7 days, at 43 days) was 4/14 and the “mice with a BMS score of 7 and above” value ([5]; last two weeks of testing (5 and 6 weeks after injury)) was 28%.

In the case of “KAFDITYVRLKF [C16, KAFDITYVRLKF (SEQ ID NO:2)]”, the Leukocytes basophils (peripheral leukocytes; [9]) was “N”, the Leukocytes eosinophils (peripheral leukocytes; [9]) was “N” and the Leukocytes lymphocytes (peripheral leukocytes; [9]) was “N”. The Leukocytes monocytes (peripheral leukocytes; [9]) was “N”, the Leukocytes neutrophils (peripheral leukocytes; [9]) was “N” and the Leukocytes total (peripheral leukocytes; [9]) was “N”. The Thrombocytes (peripheral leukocytes; [9]) was “low”, the white cell counts (peripheral leukocytes; treated for 7 days) was “within normal range” and the Erythrocytes [6] was “N”.

With “RFSVAVSSHYPFWSR (SEQ ID NO:3) [SP3, reference compound]” the “white matter cross-sectional area at the injury epicenter, percent of sham-operated mice” value ([1]; 100 μg/day i.v. daily for 7 days, 7 days after contusion) was 30±5%, the “effect on the inflammatory response” value ([2]; control peptide 100 μg/day, at 7 days) was “no significant effect” and the “effect on monocyte transmigration” value [7] was “no significant effect”. For the same substance, the BMS score ([5]; 100 μg/day i.v. daily for 7 days, 7 days following injury) was 0.7±0.3.

“azide-free blocking antibody against human αvβ3 (Cat# MAB1976Z, Chemicon; also known as LM609)” gave a monocyte (THP-1) transmigration across an endothelial cell layer, blocking antibody, with TNFα, without C16 [8] of 64% and a monocyte transmigration across an EC layer, reduction by blocking antibody [8] of 36%.
